# Test system: M. fortuitum ATCC 6841
# Assay: Antimycobacterial broth microdilution MIC, non-tuberculous mycobacteria
# Format: cell-based
# Details: 48 h
row,SMILES,MIC M. fortuitum ATCC 6841
1,"COC(=O)c1cc(-c2cccc(NC(=S)Nc3ccc(C#N)cc3)c2)on1 [5i, Methyl 5-(3-(3-(4-cyanophenyl)thioureido)phenyl)isoxazole-3-carboxylate]",weaker inhibition
2,"COC(=O)c1cc(-c2cccc(NC(=S)Nc3ccc(F)cc3F)c2)on1 [5k, Methyl 5-(3-(3-(2,4-difluorophenyl)thioureido)phenyl)isoxazole-3-carboxylate]",weaker inhibition
3,"COC(=O)c1cc(-c2cccc(NC(=S)Nc3ccc(F)c(Cl)c3)c2)on1 [5m, Methyl 5-(3-(3-(3-chloro-4-fluorophenyl)thioureido)phenyl)isoxazole-3-carboxylate]",weaker inhibition

# Test system: M. chelonae ATCC 35752
# Assay: as above
# Format: cell-based
# Details: 48 h
row,SMILES,MIC M. chelonae ATCC 35752
1,"COC(=O)c1cc(-c2cccc(NC(=S)Nc3ccc(C#N)cc3)c2)on1 [5i, Methyl 5-(3-(3-(4-cyanophenyl)thioureido)phenyl)isoxazole-3-carboxylate]",weaker inhibition
2,"COC(=O)c1cc(-c2cccc(NC(=S)Nc3ccc(F)cc3F)c2)on1 [5k, Methyl 5-(3-(3-(2,4-difluorophenyl)thioureido)phenyl)isoxazole-3-carboxylate]",weaker inhibition
3,"COC(=O)c1cc(-c2cccc(NC(=S)Nc3ccc(F)c(Cl)c3)c2)on1 [5m, Methyl 5-(3-(3-(3-chloro-4-fluorophenyl)thioureido)phenyl)isoxazole-3-carboxylate]",weaker inhibition

# Test system: Vero cells
# Assay: not given
# Details: CC50 Vero cells / MIC Mtb H37Rv
row,SMILES,SI selectivity index (CC50/MIC)
1,"COC(=O)c1cc(-c2cccc(NC(=O)Nc3ccc(F)cc3)c2)on1 [4j, Methyl 5-(3-(3-(4-fluorophenyl)ureido)phenyl)isoxazole-3-carboxylate]",> 200
2,"COC(=O)c1cc(-c2cccc(NC(=S)Nc3ccc(Cl)cc3)c2)on1 [5f, Methyl 5-(3-(3-(4-chlorophenyl)thioureido)phenyl)isoxazole-3-carboxylate]",> 50
3,"COC(=O)c1cc(-c2cccc(NC(=O)Nc3ccccc3OC)c2)on1 [4d, Methyl 5-(3-(3-(2-methoxyphenyl)ureido)phenyl)isoxazole-3-carboxylate]",< 20
4,"COC(=O)c1cc(-c2cccc(NC(=O)Nc3ccc(C(F)(F)F)cc3)c2)on1 [4n, Methyl 5-(3-(3-(4-(trifluoromethyl)phenyl)ureido)phenyl)isoxazole-3-carboxylate]",> 50
5,"COC(=O)c1cc(-c2cccc(NC(=O)Nc3ccc(Cl)cc3Cl)c2)on1 [4r, Methyl 5-(3-(3-(2,4-dichlorophenyl)ureido)phenyl)isoxazole-3-carboxylate]",> 50
6,"COC(=O)c1cc(-c2cccc(NC(=O)Nc3cc(OC)ccc3OC)c2)on1 [4w, Methyl 5-(3-(3-(2,5-dimethoxyphenyl)ureido)phenyl)isoxazole-3-carboxylate]",< 20
7,"COC(=O)c1cc(-c2ccc(NC(=O)Nc3ccc(Cl)c(Cl)c3)cc2)on1 [4tb, Methyl 5-(4-(3-(3,4-dichlorophenyl)ureido)phenyl)isoxazole-3-carboxylate]",> 80
